From US6831075B2, “Heterocyclic substituted pyrazolones” (Cephalon, Inc., priority 1999, dated 2004)

Legend:
Type in all cases: biochemical
[1] = target: T1, recombinant human baculovirus-expressed VEGFR1 cytoplasmic domain (Homo sapiens, UniProt P17948); assay: VEGFR1 kinase inhibition assay (ELISA-based, time-resolved fluorescence); settings: 1 uM compound, 30 μM ATP; for inhibition at 1 µM: read-out: VEGFR-1 kinase % inhibition @ 1 uM
T1 construct: recombinant human baculovirus-expressed VEGFR1 cytoplasmic domain; host or cells: baculovirus expression system
T1 sequence (P17948 781-1338 limits assumed): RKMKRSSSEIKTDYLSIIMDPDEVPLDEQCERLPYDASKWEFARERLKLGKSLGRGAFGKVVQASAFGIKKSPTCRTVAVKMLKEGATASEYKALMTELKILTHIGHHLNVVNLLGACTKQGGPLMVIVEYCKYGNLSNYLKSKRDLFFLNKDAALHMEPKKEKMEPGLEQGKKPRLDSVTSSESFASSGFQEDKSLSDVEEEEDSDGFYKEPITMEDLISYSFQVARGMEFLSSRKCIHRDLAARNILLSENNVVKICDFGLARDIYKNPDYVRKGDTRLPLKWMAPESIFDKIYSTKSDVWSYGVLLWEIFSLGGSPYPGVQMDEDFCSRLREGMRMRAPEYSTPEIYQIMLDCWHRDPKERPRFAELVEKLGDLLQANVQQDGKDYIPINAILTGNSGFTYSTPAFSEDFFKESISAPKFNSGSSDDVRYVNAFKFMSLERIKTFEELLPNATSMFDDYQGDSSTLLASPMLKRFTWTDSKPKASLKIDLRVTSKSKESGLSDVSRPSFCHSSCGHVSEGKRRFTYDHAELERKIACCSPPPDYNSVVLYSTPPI
Description: Inhibition of Vascular Endothelial Growth Factor Receptor-1 Kinase Activity
The VEGFR1 kinase activity assay utilizes an ELISA-based format in a 96-well FluoroNUNC Maxisorp plate with a time-resolved fluorescence readout. The plate was coated with 100 μl/well of substrate solution (recombinant human PLC-γ/GST) at a concentration of 40 μg/ml in Tris buffered saline (TBS). The VEGFR1 activity was assayed in 100-μl assay micture containing 50 mM HEPES (pH 7.4), 30 μM ATP, 10 mM MnCl2, 0.1% BSA, 2% DMSO, and 300 ng/ml prephosphorylated recombinant human baculovirus-expressed VEGFR1 cytoplasmic domain. Compounds were screened for inhibition of the VEGFR1 kinase activity at a concentration of 1 μM. The kinase reaction was allowed to proceed at 37° C. for 15 minutes. The detection antibody, europium-labeled anti-phosphotyrosine antibody (Wallac #CR04-100), was added at 1:5000 dilution in block buffer (3% BSA in TBST). After a 1-hour incubation at 37° C., 100 μl of enhancement solution (Wallac #1244-105) was added and the plate was gently agitated. After 5 min, the fluorescence of the resulting solution was measured using the BMG Fluostar (Model # 403).

baculoviral GST-MLK3KD = target: T2, baculoviral GST-MLK3KD (Homo sapiens, UniProt Q16584); assay: Mixed Lineage Kinase-3 inhibition assay (Millipore Multiscreen plate, 32P); settings: 1 uM compound, 100 μM ATP; for inhibition at 1 µM: read-out: MLK-3 Kinase % inhibition @ 1 uM
T2 construct: 2 μg/ml of baculoviral GST-MLK3KD; GST (N); host or cells: baculovirus expression system
T2 sequence (Q16584 117-379 limits assumed): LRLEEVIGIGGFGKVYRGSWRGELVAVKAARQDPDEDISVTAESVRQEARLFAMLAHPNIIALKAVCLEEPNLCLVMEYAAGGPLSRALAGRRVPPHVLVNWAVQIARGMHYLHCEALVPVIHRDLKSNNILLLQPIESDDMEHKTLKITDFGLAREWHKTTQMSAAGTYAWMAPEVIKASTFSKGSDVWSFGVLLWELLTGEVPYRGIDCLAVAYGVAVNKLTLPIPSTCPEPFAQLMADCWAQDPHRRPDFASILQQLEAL
Description: Inhibition of Mixed Lineage Kinase-3 Activity
(§1) Assays were performed using the Millipore Multiscreen plate format as described for MLK1. Briefly, each 50-μl assay mixture contained 20 mM Hepes, pH 7, 1 mM EGTA, 10 mM MgCl2, 1 mM DTT, 25 mM β-glycerophosphate, 100 μM ATP, 0.25 μCi [γ-^32P]ATP, 0.1% BSA, 500 μg/ml myelin basic protein (UBI #13-104), 2% DMSO, various concentrations of test compound, and 2 μg/ml of baculoviral GST-MLK3KD. Samples were incubated for 15 min at 37° C. The reaction was stopped by adding ice cold 50% TCA and the proteins were allowed to precipitate for 30 min at 4° C. The plates were then washed with ice cold 25% TCA. Supermix scintillation cocktail was added, and the plates were allowed to equilibrate for 1-2 hours prior to counting.

[2] = target: T3, recombinant human baculovirus-expressed FGFR1 cytoplasmic domain (Homo sapiens, UniProt P11362); assay: FGFR1 kinase inhibition assay (ELISA-based, time-resolved fluorescence); settings: 1 uM compound; 20 μM ATP
T3 construct: recombinant human baculovirus-expressed FGFR1 cytoplasmic domain; host or cells: baculovirus expression system
T3 sequence (P11362 398-822 limits assumed): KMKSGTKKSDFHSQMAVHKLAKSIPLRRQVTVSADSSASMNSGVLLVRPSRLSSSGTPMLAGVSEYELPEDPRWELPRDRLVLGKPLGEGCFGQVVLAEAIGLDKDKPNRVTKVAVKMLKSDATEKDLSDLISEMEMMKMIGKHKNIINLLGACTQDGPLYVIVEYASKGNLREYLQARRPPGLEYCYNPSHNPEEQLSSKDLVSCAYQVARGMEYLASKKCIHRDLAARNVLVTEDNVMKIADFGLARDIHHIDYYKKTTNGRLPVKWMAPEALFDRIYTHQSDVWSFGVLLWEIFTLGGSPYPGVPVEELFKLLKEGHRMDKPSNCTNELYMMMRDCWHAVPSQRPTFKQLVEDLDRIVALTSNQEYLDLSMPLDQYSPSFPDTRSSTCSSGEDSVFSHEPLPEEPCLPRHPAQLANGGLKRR
Description: Inhibition of Fibroblast Growth Factor Receptor-1 (FGFR1) Kinase Activity
The FGFR1 kinase activity was measured using an ELISA-based format in a 96-well FluoroNUNC Maxisorp plate with a time-resolved fluorescence readout as described for trkA kinase. The plate was coated with 100 μl/well of substrate solution (recombinant human PLC-γ/GST) at a concentration of 10 μg/ml in Tris buffered saline (TBS). The FDGFR1 activity was assayed in 100-μl assay micture containing 50 mM HEPES (pH 7.4), 20 μM ATP, 10 mM MnCl2, 0.1% BSA, 2% DMSO, and 15 ng/ml recombinant human baculovirus-expressed FGFR1 cytoplasmic domain (prephosphorylated prior to use). Compounds were screened for inhibition of the FGFR1 kinase activity at a conentration of 1 μM. The kinase reaction was allowed to proceed at 37° C. for 15 minutes. The detection antibody, europium-labeled anti-phosphotyrosine antibody (Wallace #CR04-100), was added at 1:5000 dilution in block buffer (3% BSA in TBST). After a 1-hour incubation at 37° C., 100 μl of enhancement solution (Wallac #1244-105) and the plate was gently agitated. After 5 min, the fluorescence of the resulting solutions measured using the BMG Fluostar (Model # 403).

baculoviral GST-MLK2KDLZ = target: T4, baculoviral GST-MLK2KDLZ (Homo sapiens, UniProt Q02779); assay: Mixed Lineage Kinase-2 inhibition assay (Millipore Multiscreen plate, 32P); settings: 1 uM compound, 100 μM ATP; for inhibition at 1 µM: read-out: MLK-2 Kinase % inhibition @ 1 uM
T4 construct: 3 μg/ml of baculoviral GST-MLK2KDLZ; GST (N); host or cells: baculovirus expression system
T4 sequence (Q02779 98-440 limits assumed): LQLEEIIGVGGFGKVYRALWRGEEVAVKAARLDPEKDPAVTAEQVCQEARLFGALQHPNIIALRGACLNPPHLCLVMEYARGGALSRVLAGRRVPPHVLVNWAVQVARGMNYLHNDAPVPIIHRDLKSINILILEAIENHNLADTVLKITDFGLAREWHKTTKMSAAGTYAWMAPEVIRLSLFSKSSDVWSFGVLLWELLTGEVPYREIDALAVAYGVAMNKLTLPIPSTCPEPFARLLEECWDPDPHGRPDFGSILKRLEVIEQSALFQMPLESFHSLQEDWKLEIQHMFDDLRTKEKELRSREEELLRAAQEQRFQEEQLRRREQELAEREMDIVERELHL
Description: Inhibition of Mixed Lineage Kinase-2 Activity
as §1, with “MLK1. Each” for “MLK1. Briefly, each”, “and 3” for “and 2”, “baculoviral GST-MLK2KDLZ.” for “baculoviral GST-MLK3KD.”, “15 min.” for “15 min”, “25% TCA” for “25% TCA.”

| Structure (SMILES) | inhibition at 1 µM [1] [%] | inhibition at 1 µM (baculoviral GST-MLK3KD) [%] | inhibition at 1 µM [2] [%] | inhibition at 1 µM (baculoviral GST-MLK2KDLZ) [%] | VEGFR-1 kinase % inhibition @ 1 uM [1] [%] | MLK-3 Kinase % inhibition @ 1 uM (baculoviral GST-MLK3KD) [%] | FGFR1 % inhibition @ 1 uM [2] [%] | MLK-2 Kinase % inhibition @ 1 uM (baculoviral GST-MLK2KDLZ) [%] |
| --- | --- | --- | --- | --- | --- | --- | --- | --- |
| O=C1NN=C(c2nccs2)C1=Cc1c[nH]c2ccccc12 [Compound 25, 4-(indol-3-ylmethylene)-3-(1,3-thiazol-2-yl)-2-pyrazolin-5-one] | 66 | 48 | 52 | -4 | – | – | – | – |
| Cc1cc(C)c(C=C2C(=O)NN=C2c2nccs2)[nH]1 [Compound 26, 4-[(3,5-dimethylpyrrol-2-yl)methylene]-3-(1,3-thiazol-2-yl)-2 pyrazolin-5-one] | 64 | 57 | 46 | -7 | – | – | – | – |
| Cc1cc(C)c(C=C2C(=O)NN=C2c2c(C)coc2C)[nH]1 [Compound 27] | – | – | – | – | 11 | 44 | 36 | −4 |
| Cc1cc(C)c(C=C2C(=O)NN=C2c2ccco2)[nH]1 [Compound 28, 4-[(3,5-dimethylpyrrol-2-yl)methylene]-3-(2-furyl)-2-pyrazolin-5-one] | 36 | 50 | 37 | 10 | – | – | – | – |
| O=C1NN=C(c2ccco2)C1=Cc1c[nH]c2ccccc12 [Compound 29, 3-(2-furyl)-4-(indol-3-ylmethylene)-2-pyrazolin-5-one] | 53 | 38 | 41 | 2 | – | – | – | – |
| Cc1cc(C)c(C=C2C(=O)NN=C2c2ccccn2)[nH]1 [Compound 30] | – | – | – | – | 41 | 46 | 27 | 1 |
| Cn1ccc(C2=NNC(=O)C2=Cc2c[nH]c3cccc(OCc4ccccc4)c23)c1 [Compound 31] | – | – | – | – | 10 | 49 | 17 | 0 |
| Cn1ccc(C2=NNC(=O)C2=Cc2c[nH]c3ccc(F)cc23)c1 [Compound 32] | – | – | – | – | 48 | 42 | 4 | −14 |
| Cc1ccc2c(C=C3C(=O)NN=C3c3ccn(C)c3)c[nH]c2c1 [Compound 33] | – | – | – | – | 36 | 28 | 27 | −13 |
| Cc1cccc2c(C=C3C(=O)NN=C3c3ccn(C)c3)c[nH]c12 [Compound 34] | – | – | – | – | 30 | 32 | 34 | 1 |
| Cn1ccc(C2=NNC(=O)C2=Cc2c[nH]c3ccc(Cl)cc23)c1 [Compound 35] | – | – | – | – | 10 | 34 | 29 | −15 |
| Cc1cc(C)c(C=C2C(=O)NN=C2c2cc(C)oc2C)[nH]1 [Compound 36] | – | – | – | – | 14 | 25 | 31 | −18 |
| Cc1cc(C)c(C=C2C(=O)NN=C2c2ccsc2)[nH]1 [Compound 37, 4-[(3,5-dimethylpyrrol-2-yl)methylene]-3-(3-thienyl)-2-pyrazolin-5-one] | 14 | 79 | 32 | 12 | – | – | – | – |
| O=C1NN=C(c2cccs2)C1=Cc1c[nH]c2ccccc12 [Compound 38, 4-(indol-3-ylmethylene)-3-(2-thienyl)-2-pyrazolin-5-one] | 28 | 38 | 28 | 2 | – | – | – | – |
| Cc1cc(C)c(C=C2C(=O)NN=C2c2csc3ccccc23)[nH]1 [Compound 39] | – | – | – | – | 4 | 55 | 13 | −7 |
| Cc1cc(C)c(C=C2C(=O)NN=C2c2csc(-c3ccccc3)n2)[nH]1 [Compound 40] | – | – | – | – | 16 | 22 | 22 | −8 |
| Cc1cc(C)c(C=C2C(=O)NN=C2c2cc(-c3ccc(Cl)cc3)oc2C)[nH]1 [Compound 41] | – | – | – | – | 5 | 10 | 21 | −15 |
| Cc1oc(-c2ccc(Cl)cc2)cc1C1=NNC(=O)C1=Cc1c[nH]c2ccccc12 [Compound 42] | – | – | – | – | 13 | 21 | 32 | −10 |
| O=C1NN=C(c2ccco2)C1=Cc1c[nH]c2ccc(OCc3ccccc3)cc12 [Compound 43] | – | – | – | – | −2 | 21 | 26 | 2 |
| O=C1NN=C(c2ccco2)C1=Cc1c[nH]c2cccc(OCc3ccccc3)c12 [Compound 44] | – | – | – | – | 2 | 28 | 10 | −3 |
| Cn1cc(C=C2C(=O)NN=C2c2ccco2)c2ccccc21 [Compound 45] | – | – | – | – | 46 | 56 | 8 | −22 |
| Cc1ccc2c(C=C3C(=O)NN=C3c3ccco3)c[nH]c2c1 [Compound 46] | – | – | – | – | 41 | 36 | 25 | 2 |
